Data reported in US6525026B2, “Carbamyloxy compounds which inhibit leukocyte adhesion mediated by VLA-4” (Elan Pharmaceuticals, Inc., priority 1997, dated 2003).
Numbered stars: 1 amine (or outer) side, 2 acyl side, 3 side chain; on linkers, the order of the positions; unused ones are H or OH. Side chains are listed from the residue outwards. Peptide text beside a SMILES is read from it. * marks the point of attachment. Tos = Cc1ccc(S(=O)(=O)*)cc1; CO = O=C([*:1])[*:2]; OiPr = CC(C)O*

How the values were obtained:
rats or guinea pigs = test: Experimental Autoimmune (or Allergic) Encephalomyelitis (EAE) model, motor impairment; assay type: in vivo; conditions: treatment from Day 8, 10 mg/kg to 200 mg/kg bid for five days, SC, PO or IP

Row | Structure (SMILES) | active in EAE in vivo assay (delayed the onset of symptoms, e.g., clinical scores no greater than 2 or slowed body weight loss as compared to the control) (rats or guinea pigs) | melting point [°C]
1 | Cc1ccc(S(=O)(=O)N2CSC(C)(C)[C@H]2C(=O)N[C@@H](Cc2ccc(OC(=O)N3CCN(C)CC3)cc2)C(=O)OC(C)(C)C)cc1 [Example 16, N-(Toluene-4-sulfonyl)-L-(5,5-dimethyl)thiaprolyl-L-4-(4-methylpiperazin-1-ylcarbonyloxy)phenylalanine tert-Butyl Ester] | active | 
2 | Cc1ccc(S(=O)(=O)N2CCC[C@H]2C(=O)N[C@@H](Cc2ccc(OC(=O)N(C)C)cc2)C(=O)O)cc1 [Example 9, N-(Toluene-4-sulfonyl)-L-prolyl-L-4-(N,N-dimethylcarbamyloxy)phenylalanine] (Tos-Pro-Tyr([CO-NMe2])-OH) | active | 
3 | CN(C)C(=O)Oc1ccc(C[C@H](NC(=O)[C@@H]2CCCN2S(=O)(=O)c2cnn(C)c2)C(=O)OC(C)(C)C)cc1 [Example 117, N-(Methyl-pyrazole-4-sulfonyl)-L-prolyl-L-(4-N,N-dimethylcarbamyloxy)phenylalanine tert-Butyl Ester] | active | 
4 | Cc1ccc(S(=O)(=O)N2CS(=O)(=O)C(C)(C)[C@H]2C(=O)N[C@@H](Cc2ccc(OC(=O)N(C)C)cc2)C(=O)OC(C)C)cc1 [Example 75, N-(Toluene-4-sulfonyl)-L-(1,1-dioxo-5,5-dimethyl)thiaprolyl-L-4-(N,N-dimethylcarbamyloxy)phenylalanine Isopropyl Ester] | active | 
5 | Cc1ccc(S(=O)(=O)N2CCC[C@H]2C(=O)N[C@@H](Cc2ccc(OC(=O)N(C)C)cc2)C(=O)OC(C)C)cc1 [Example 101, N-(Toluene-4-sulfonyl)-L-prolyl-L-4-(N,N-dimethylcarbamyloxy)-L-phenylalanine Isopropyl Ester] (Tos-Pro-Tyr([CO-NMe2])-OiPr) | active | 
6 | Cc1ccc(S(=O)(=O)N2CCC[C@H]2C(=O)N[C@@H](Cc2ccc(OC(=O)N3CCN(CCO)CC3)cc2)C(=O)OC(C)(C)C)cc1 |  | 158 to 160
7 | CC(C)OC(=O)[C@H](Cc1ccc(OC(=O)N(C)C)cc1)NC(=O)[C@@H]1CCCN1S(=O)(=O)c1cnn(C)c1 [Example 137, N-(Methyl-pyrazole-4-sulfonyl)-L-prolyl-L-(4-N,N-dimethylcarbamyloxy)-phenylalanine Isopropyl Ester] | active | 
8 | Cc1ccc(S(=O)(=O)N2CCC[C@H]2C(=O)N[C@@H](Cc2ccc(OC(=O)N3CCSCC3)cc2)C(=O)OC(C)(C)C)cc1 [Example 82, N-(Toluene-4-sulfonyl)-L-prolyl-L-4-(thiomorpholin-4-ylcarbonyloxy)phenylalanine tert-Butyl Ester] | active | 
9 | CN(C)C(=O)Oc1ccc(C[C@H](NC(=O)[C@H]2N(S(=O)(=O)c3ccc(F)cc3)CSC2(C)C)C(=O)OC(C)(C)C)cc1 [Example 95, N-(4-Fluorobenzenesulfonyl)-L-(5,5-dimethyl)thiaprolyl-L-4-(N,N-dimethylcarbamyloxy)phenylalanine tert-Butyl Ester] | active | 
10 | Cc1ccc(S(=O)(=O)N2CSC(C)(C)[C@H]2C(=O)N[C@@H](Cc2ccc(OC(=O)N(C)C)cc2)C(=O)OC(C)(C)C)cc1 [Example 12, N-(Toluene-4-sulfonyl)-L-(5,5-dimethyl)thiaprolyl-L-4-(N,N-dimethylcarbamyloxy)phenylalanine tert-Butyl Ester] | active | 
11 | Cc1ccc(S(=O)(=O)N2CCC[C@H]2C(=O)N[C@@H](Cc2ccc(OC(=O)N3CCN(C)CC3)cc2)C(=O)OC(C)(C)C)cc1 [Example 4, N-(Toluene-4-sulfonyl)-L-prolyl-L-4-(4-methylpiperazin-1-ylcarbonyloxy)phenylalanine tert-Butyl Ester] | active | 
12 | Cc1ccc(S(=O)(=O)N2CSC(C)(C)[C@H]2C(=O)N[C@@H](Cc2ccc(OC(=O)N(C)C)cc2)C(=O)OC(C)C)cc1 [Example 11, N-(Toluene-4-sulfonyl)-L-(5,5-dimethyl)thiaprolyl-L-4-(N,N-dimethylcarbamyloxy)phenylalanine Isopropyl Ester] | active | 
13 | Cc1ccc(S(=O)(=O)N2CCS(=O)(=O)C[C@@H]2C(=O)N[C@@H](Cc2ccc(OC(=O)N(C)C)cc2)C(=O)OC(C)C)cc1 [Example 73, N-(Toluene-4-sulfonyl)-L-(1,1-dioxothiamorpholin-3-carbonyl)-L-4-(N,N-dimethylcarbamyloxy)phenylalanine Isopropyl Ester] | active | 
14 | Cc1ccc(S(=O)(=O)N2CCS(=O)(=O)C[C@@H]2C(=O)N[C@@H](Cc2ccc(OC(=O)N(C)C)cc2)C(=O)OC(C)(C)C)cc1 [Example 51, N-(Toluene-4-sulfonyl)-L-(1,1-dioxothiamorpholin-3-carbonyl)-L-4-(N,N-dimethylcarbamyloxy)phenylalanine tert-Butyl Ester] | active | 
